Laboratory results reported in ChEMBL document CHEMBL5113376, “Antimalarial application of quinones: A recent update” (Eur J Med Chem, 2021).
≈ marks a conversion by molar mass, not a printed value.

What was measured:
Plasmodium falciparum [1] = experiment: Antimalarial activity against Plasmodium falciparum 3D7 measured after 24 hrs by hypoxanthine based scintillation counting analysis; assay type: functional; details: read-out: ED50 (the source's name)
Plasmodium falciparum [2] = experiment: Antimalarial activity against chloroquine resistant Plasmodium falciparum K1 incubated for 72 hrs by SYBR green staining based fluorescence reader method; assay type: functional, organism-based; details: K1, 72 h
[3] = Selectivity index, ratio of CC50 for african green monkey Vero cells to IC50 for Chloroquine resistant Plasmodium falciparum K1; assay type: toxicity; details: read-out: Ratio CC50/IC50
Plasmodium falciparum [4] = experiment: Antimalarial activity against chloroquine […] Plasmodium falciparum 3D7 incubated for 72 hrs by SYBR green staining based fluorescence reader method; assay type: functional, organism-based; details: 3D7, 72 h
[5] = Cytotoxicity against African green monkey Vero cells; assay type: toxicity, cell-based; details: chlorocebus sabaeus
Plasmodium falciparum [6] = experiment: Antimalarial activity against multi-drug resistant Plasmodium falciparum K1; assay type: functional, organism-based
Plasmodium falciparum [7] = experiment: In vivo antimalarial activity against Plasmodium falciparum 3D70087/N9 infected in humanized mouse model assessed as reduction in parasitemia administered orally for 4 days measured on day 7 relative to control; assay type: functional; parameters: scale not given: the % may be the effect or the level left; details: route po; time 7 day
Plasmodium falciparum [8] = experiment: Antimalarial activity against drug resistant Plasmodium falciparum K1; assay type: functional, organism-based
Plasmodium falciparum [9] = experiment: Antimalarial activity against Plasmodium falciparum 3D7; assay type: functional, organism-based
Plasmodium falciparum [10] = experiment: Antimalarial activity against Plasmodium falciparum RKL-2 assessed as inhibition of malarial growth by measuring dead rings/schizonts at 50 ug/ml relative to control; assay type: functional
Plasmodium falciparum [11] = experiment: Antimalarial activity against Plasmodium falciparum RKL-2; assay type: functional, organism-based
Plasmodium falciparum [12] = experiment: Antimalarial activity against Plasmodium falciparum 3D7 assessed as inhibition of malarial growth by measuring dead rings/schizonts at 50 ug/ml relative to control; assay type: functional
Plasmodium berghei [13] = experiment: In vivo antiplasmodial activity against Plasmodium berghei ANKA infected in CD-1 mouse assessed as decrease in parasitaemia at 50 mg/kg, ip measured after 4 days relative to control; assay type: functional; parameters: scale not given: the % may be the effect or the level left; details: time 4 day
Plasmodium falciparum [14] = experiment: Antimalarial activity against Plasmodium falciparum Dd2 by SYBR green method; assay type: functional, organism-based
Plasmodium falciparum [15] = experiment: Potency index, ratio of chloroquine IC50 to compound IC50 for antimalarial activity against Plasmodium falciparum Dd2; assay type: functional
Plasmodium berghei [16] = experiment: In vivo antiplasmodial activity against Plasmodium berghei ANKA infected in CD-1 mouse assessed as decrease in parasitaemia at 50 mg/kg, ip measured after 7 days relative to control; assay type: functional; parameters: scale not given: the % may be the effect or the level left; details: time 7 day
Plasmodium falciparum [17] = experiment: Antimalarial activity against chloroquine sensitive Plasmodium falciparum RKL-2; assay type: functional, organism-based
Plasmodium falciparum [18] = experiment: Antimalarial activity against chloroquine resistant Plasmodium falciparum RKL-9; assay type: functional, organism-based
Plasmodium falciparum [19] = experiment: Antiplasmodial activity against Chloroquine resistant plasmodium falciparum FCR-3; assay type: functional, organism-based
[20] = Selectivity index, ratio of IC50 for human MDA-MB-231 cells to IC50 for Chloroquine resistant Plasmodium falciparum FCR-3; assay type: toxicity; details: read-out: Ratio IC50
Plasmodium falciparum [21] = experiment: Antiplasmodial activity against Plasmodium falciparum W2 assessed as inhibition of parasite growth after 48 hrs by pLDH assay; assay type: functional, organism-based; details: W2, 48 h
Plasmodium falciparum [22] = experiment: Antimalarial activity against Plasmodium falciparum W2; assay type: functional, organism-based
Plasmodium falciparum [23] = experiment: Antimalarial activity against Plasmodium falciparum TM91C235; assay type: functional, organism-based
Plasmodium falciparum [24] = experiment: Antimalarial activity against Plasmodium falciparum TM90C2B (2007); assay type: functional, organism-based
Plasmodium falciparum [25] = experiment: Antimalarial activity against Plasmodium falciparum D6; assay type: functional, organism-based
Plasmodium falciparum [26] = experiment: Antimalarial activity against Plasmodium falciparum TM90C2B (1995); assay type: functional, organism-based
Plasmodium berghei [27] = experiment: Antimalarial activity against Plasmodium berghei; assay type: functional, organism-based
Plasmodium falciparum [28] = experiment: Antimalarial activity against chloroquine resistant Plasmodium falciparum RKL-9 by Giemsa staining method; assay type: functional, organism-based
Plasmodium falciparum [29] = experiment: Antimalarial activity against chloroquine sensitive Plasmodium falciparum RKL-2 by Giemsa staining method; assay type: functional, organism-based
Plasmodium falciparum [30] = experiment: Antimalarial activity against Plasmodium falciparum Dd2 by H-hypoxanthine incorporation based assay; assay type: functional, organism-based
Plasmodium falciparum [31] = experiment: Antimalarial activity against Plasmodium falciparum 3D7 by H-hypoxanthine incorporation based assay; assay type: functional, organism-based
Plasmodium berghei [32] = experiment: In vivo antiplasmodial activity against Plasmodium berghei infected in mouse assessed as increase in mean survival time at 50 mg/kg/day, ip for 4 days (reference value: 4 to 6 days); assay type: functional; details: time 4 day
Plasmodium berghei [33] = experiment: In vivo antiplasmodial activity against Plasmodium berghei infected in mouse assessed as reduction of parasitaemia at 50 mg/kg/day, ip for 4 days relative to control; assay type: functional; parameters: scale not given: the % may be the effect or the level left; details: time 4 day
Plasmodium berghei [34] = experiment: In vivo antiplasmodial activity against Plasmodium berghei infected in mouse assessed as reduction of parasitaemia at 100 mg/kg/day, po for 4 days relative to control; assay type: functional; parameters: scale not given: the % may be the effect or the level left; details: time 4 day
Plasmodium falciparum [35] = experiment: Antiplasmodial activity against Plasmodium falciparum K1; assay type: functional, organism-based
Plasmodium falciparum [36] = experiment: Antimalarial activity against Plasmodium falciparum W2 by 96-well microtitre plate method based scintillation counting analysis; assay type: functional, organism-based
Plasmodium falciparum [37] = experiment: Antimalarial activity against Plasmodium falciparum by 96-well microtitre plate method based scintillation counting analysis; assay type: functional, organism-based
Plasmodium falciparum [38] = experiment: Antiplasmodial activity against Plasmodium falciparum 3D7 infected in human erythrocytes assessed as growth inhibition; assay type: functional, organism-based; details: 3D7, Erythrocyte
Plasmodium falciparum [39] = experiment: Antimalarial activity against Plasmodium falciparum NF54 by 96-well microtitre plate method based scintillation counting analysis; assay type: functional, organism-based

Cc1cc(O)c2c(c1)C(O)(c1ccc3c(c1O)C(=O)c1c(O)cc(C)c(O)c1C3=O)c1cccc(O)c1C2=O (stereo not given)
EC50 (Plasmodium falciparum [1]): 0.537 µg/mL (≈ 1.02 µM)

Cc1cc(O)c2c(c1)C(=O)c1cc(O)c(CN3CCCCC3)c(O)c1C2=O
IC50 (Plasmodium falciparum [2]): 2.28 µM | selectivity ratio [3]: 315 | IC50 (Plasmodium falciparum [4]): 2.74 µM | CC50 [5]: 782 µM

CSC1=CC2=C(C(=O)c3ccc([C@H]4C[C@@H](O)[C@H](O)[C@@H](C)O4)c(O)c3C2=O)[C@@]2(O)C(=O)C[C@](C)(O)C[C@@]12O
IC50 (Plasmodium falciparum [6]): 0.0534 µg/mL (≈ 0.1 µM)

Cc1n(C(C)C)c2c([n+]1C(C)C)C(=O)c1ccccc1C2=O.[Br-]
Activity (Plasmodium falciparum [7]): 90%

CCCn1c2c([n+](C(C)C)c1C)C(=O)c1ccccc1C2=O
IC50 (Plasmodium falciparum [8]): 0.0032 µM

O=C1C(O)=C(C(c2ccccc2O)N2CCCC2)C(=O)c2ccccc21 (stereo not given)
IC50 (Plasmodium falciparum [9]): 0.411 µg/mL | inhibition at 50 µg/mL (Plasmodium falciparum [10]): 70% | IC50 (Plasmodium falciparum [11]): 1.17 µg/mL | inhibition at 50 µg/mL (Plasmodium falciparum [12]): 72.5%

CC1=C(Cc2ccc(NC(=O)OC(C)(C)C)cc2)C(=O)c2ccccc2C1=O
Activity (Plasmodium berghei [13]): 75.5% | IC50 (Plasmodium falciparum [14]): 0.042 µM | Ratio IC50 (Plasmodium falciparum [15]): 3 | Activity (Plasmodium berghei [16]): 81.8%

O=C1C(O)=C(C(Nc2cccc([N+](=O)[O-])c2)c2ccc([N+](=O)[O-])cc2)C(=O)c2ccccc21 (stereo not given)
IC50 (Plasmodium falciparum [9]): 0.475 µM | inhibition at 50 µg/mL (Plasmodium falciparum [10]): 70% | IC50 (Plasmodium falciparum [11]): 1.39 µM | inhibition at 50 µg/mL (Plasmodium falciparum [12]): 72.5%

O=C1C(O)=C(Nc2ccc(O)c(CN3CCOCC3)c2)C(=O)c2ccccc21
IC50 (Plasmodium falciparum [17]): 0.391 µg/mL (≈ 1.03 µM) | IC50 (Plasmodium falciparum [18]): 0.993 µg/mL (≈ 2.61 µM)

CC(C)=CCC/C(=C/CC/C(C)=C/CCc1ccc2c(c1)C(=O)C=C(C)C2=O)C(=O)O
IC50 (Plasmodium falciparum [19]): 5.4 µM | selectivity ratio [20]: 443

O=C1c2ccccc2C(=O)c2oc(Cc3ccccc3)cc21
IC50 (Plasmodium falciparum [21]): 1.5 µM

CCCCCC[C@H](C)CC1=C(O)C(=O)c2c(C)cccc2C1=O
IC50 (Plasmodium falciparum [22]): 0.191 µM | IC50 (Plasmodium falciparum [23]): 0.229 µM | IC50 (Plasmodium falciparum [24]): 0.193 µM | IC50 (Plasmodium falciparum [25]): 0.073 µM | IC50 (Plasmodium falciparum [26]): 0.234 µM | IC50 (Plasmodium berghei [27]): 0.246 µM

O=C1C(O)=C(NCCNc2ccnc3cc(Cl)ccc23)C(=O)c2ccccc21
IC50 (Plasmodium falciparum [28]): 0.684 µg/mL (≈ 1.74 µM) | IC50 (Plasmodium falciparum [29]): 0.391 µg/mL (≈ 0.993 µM)

CCCNCc1cc(NC2=C(O)C(=O)c3ccccc3C2=O)ccc1O
IC50 (Plasmodium falciparum [17]): 0.453 µg/mL (≈ 1.29 µM) | IC50 (Plasmodium falciparum [18]): 2.92 µg/mL (≈ 8.29 µM)

CC1=C(Cc2ccncc2)C(=O)c2ccccc2C1=O
IC50 (Plasmodium falciparum [30]): 0.069 µM | IC50 (Plasmodium falciparum [31]): 0.067 µM

O=C(O)c1cc2c(o1)C(=O)C1=C(C2=O)S(=O)(=O)C=CN1
Time (Plasmodium berghei [32]): 9 days | Activity (Plasmodium berghei [33]): 85.7% | Activity (Plasmodium berghei [34]): 47% | IC50 (Plasmodium falciparum [35]): 0.12 µM

C=C(C)C1CC2=C(O1)C(=O)c1ccccc1C2=O (stereo not drawn) [DEHYDROISO-ALPHA-LAPACHONE]
IC50 (Plasmodium falciparum [36]): 7.53 µg/mL (≈ 31.3 µM)

Cc1cc(O)c2c(c1)C(=O)C(c1c(C)cc3c(c1O)C(=O)C=CC3=O)=CC2=O [DIOSPYRIN]
IC50 (Plasmodium falciparum [37]): 3.29 µg/mL (≈ 8.79 µM)

COC1=C2C[C@@H](C)C[C@H](OC)[C@H](O)[C@@H](C)/C=C(\C)[C@H](OC(N)=O)[C@@H](OC)/C=C\C=C(/C)C(=O)NC(=CC1=O)C2=O [GELDANAMYCIN]
IC50 (Plasmodium falciparum [38]): 0.02 µM

COc1cc(O)c(-c2c(C)cc(O)c3c2C(=O)c2cccc(O)c2C3=O)c(O)c1C(C)=O [KNIPHOLONE]
IC50 (Plasmodium falciparum [39]): 1.7 µM
